Data reported in patent US9932300B2, “N,N′-diarylurea compounds and N,N′-diarylthiourea compounds as inhibitors of translation initiation” (President and Fellows of Harvard College, priority 2009, dated 2018).

Test system: eIF2-GTP-Met-tRNAi ternary complex
Assay: Ternary complex assay (dual luciferase, firefly/renilla ratio) in stable KLN-tTA/pBISA-DL(ATF-4) cells; HTS and hit confirmation
Type: cell-based, mouse
Set-up: Activity 10 uM / Activity 2.5 uM / Activity 5 uM: unit not given here
Conditions: confirmed hits of the screen (Table 5); for Activity 5 uM: compound at 5 uM; for Activity 10 uM: compound at 10 uM; for Activity 2.5 uM: compound at 2.5 uM
From the text: For assay development, a bi-directional plasmid was designed in which a common promoter/enhancer complex drives the transcription of firefly luciferase (F-luc) ORF fused to the 5′ untranslated region (UTR) of ATF-4, and of the renilla luciferase (R-luc) ORF fused to a 90-nucleotide 5′ UTR derived from the plasmid (FIG. 6A). Because the tetracycline-regulated transactivator ((tTA), required for driving transcription from this vector) is not normally expressed in the mammalian cells, stable KLN cancer cells were constructed that expressed tTA (KLN-tTA).
The KLN-tTA colonies that drove expression of reporter genes from pBISA-DL plasmid were selected by transient transfection and dual luciferase assay. One of these KLN-tTA cell lines was transfected with the pBISA-DL^(ATF-4) expression vector, stable colonies were selected by dual luciferase assay and expanded. To determine if reduced availability of the eIF2*GTP*Met-tRNAi ternary complex increased the translation of firefly luciferase and decreased translation of renilla luciferase, selected KLN-tTA/pBISA-DL^(AFT-4) colonies were treated with thapsigargin (TG) or tunicamycin (TU), two agents known to cause phosphorylation of eIF2α.
This assay was then adapted for high throughput screening in 96 and 384 well plates. This was done by evaluating the cell density, length of exposure to compounds, DMSO tolerance and optimum firefly and renilla substrate. We then challenged these cells with thapsigargin or DMSO. […] Cell-based assays usually have higher variation than homogeneous in vitro assays due to position effect in the plate, and other variables associated with handling of cells and the plates.
Screening was conducted in 384 well white opaque plates (Nalge Nunc), 100 μl volume RPMI+10% fetal bovine serum. Cells were plated at the sub-confluent density of 10,000 cells/well, and allowed to attach for a period of 16-18 hours at 37° C., 5% CO2. Compounds were added as 1 μl of a 1 mM DMSO stock solution for a final screening concentration of 10 μM, using low-volume tips for transfer (Molecular Bioproducts). Cells were then incubated in the presence of compound for an additional sixteen hours, again at 37° C., 5% CO2. Following incubation 70 μl of the culture medium was removed from each well to allow for reagent addition and plates were allowed to equilibrate to room temperature for thirty minutes. Firefly luciferase reporter activity was then read by the addition of thirty microliters of Dual Glo Luciferase reagent (Promega), followed by one hour incubation at room temperature to allow for adequate signal buildup. Luminescence counting was conducted on a Microbeta Trilux using a 1 second read time. Renilla luciferase reporter activity was measured following addition of 30 μl Stop and Glo Luciferase reagent (Promega) and incubation identical to the one carried out for the firefly luciferase one.
Compound scores were interpreted as firefly luciferase activity divided by renilla luciferase activity, normalized to the plate's DMSO control. […] All data analysis was conducted using the BioAssay HTS software package (CambridgeSoft).
102,709 compounds in the NCI Open Chemical Repository were then screened using this HTS assay. […] Initial hits were confirmed by repeating the same dual luciferase assay in 96 well plates. Briefly, 20,000 cells/well were plated in triplicate for each concentration (10, 5 and 2.5 μM) of the compounds.

Structure (SMILES) | Activity 5 uM | Activity 10 uM | Activity 2.5 uM
O=C(C[Si](CC(=O)c1cccc(C(F)(F)F)c1)CC(=O)c1cccc(C(F)(F)F)c1)c1cccc(C(F)(F)F)c1 [Compound 55879] | 1.7 | 3.8 | –
Cc1cc(C(O)(c2ccc(N)cc2)c2ccc(N)cc2)ccc1N.Nc1ccc(C(O)(c2ccc(N)cc2)c2ccc(N)cc2)cc1 [Compound 56345] | 3.4 | 3.64 | –
CCN(CCO)c1ccc(N=Nc2ccc([N+](=O)[O-])cc2)cc1 [Compound 57019] | 5.388 | 5.441 | –
CCN(CC)c1ccc(C(O)C2=CC(=O)c3ccccc3C2=O)cc1 (centres unmarked) [Compound 58338] | 11.604 | 17.599 | –
COc1ccc(/C=C/c2ccc3ccccc3n2)cc1O.Cl [Compound 59070] | 6.227 | 7.423 | –
C[C@]12CC[C@H]3[C@@H](CCC4=CC(=O)CC[C@@H]43)[C@@H]1CC[C@@]2(O)C#CC#C[C@]1(O)CC[C@H]2[C@@H]3CCC4=CC(=O)CC[C@@H]4[C@H]3CC[C@@]21C [Compound 59465] | 1.8 | 6.8 | –
CCCCCCCC[N+](C)(CCCCCCCC)CCCCCCCC.[Cl-] [Compound 61369] | 3 | 4.4 | –
O=c1cc(-c2ccc3ccccc3n2)oc2ccc(Cl)cc12 [Compound 61626] | 2.793 | 3.1685 | –
CN(C)c1ccc(C=Cc2ccnc3ccccc23)cc1.Cl [Compound 63346] | 6.234 | 6.8235 | –
[Cl][Hg][Cl].c1cnccn1 [Compound 65429] | – | – | 3.49
S=P(Sc1ccccc1)(Sc1ccccc1)Sc1ccccc1 [Compound 65486] | 17.496 | 20.8755 | –
c1cc[c]([Hg][O]c2cccc3cccnc23)cc1 [Compound 66326] | – | 5.2 | –
Cc1ccc(N=P2(Nc3ccc(C)cc3)N=P(Nc3ccc(C)cc3)(N3CC3)NP(=Nc3ccc(C)cc3)(N3CC3)N2)cc1 (centres unmarked) [Compound 67112] | 3.1 | 16.3 | –
Cc1cc(N(CCCl)CCCl)ccc1N=Nc1ccccc1C(=O)[O-].Cc1cc(N(CCCl)CCCl)ccc1N=Nc1ccccc1C(=O)[O-].[Cu+2] [Compound 68292] | 7.2 | 18.3 | –
CCCCCCCCCCCC(c1ccccc1)[N+](C)(C)Cc1ccccc1.[Cl-] (centres unmarked) [Compound 69510] | 5.6 | 10.9 | –
O=C1C(Cl)=C(Cl)C(=O)N1c1cccc2c(N3C(=O)C(Cl)=C(Cl)C3=O)cccc12 [Compound 69580] | 3.5 | 6.4 | –
O=C(Nc1cccc(Cl)c1)Nc1cccc(Cl)c1 [Compound 69625] | 6.201 | 4.8565 | –
O=C(CCl)N1c2ccccc2Sc2ccccc21 [Compound 71676] | 2.922 | 4.1015 | –
Clc1cccc2ccc(-c3cc4ccccc4s3)nc12 [Compound 71689] | 5.724 | 7.139 | –
c1csc(-c2ccc3ccccc3n2)c1 [Compound 71690] | 2.889 | 3.4315 | –
O=C(/C=C/c1ccccc1)OC1CCCCC1 [Compound 71968] | 2.615 | 3.5615 | –
O=C(Nc1ccc(Cl)cc1)Nc1ccc(Cl)c(Cl)c1 [Compound 72005] | 11.25 | 16.9235 | –
O=C(OCCc1ccccc1)c1ccccc1O [Compound 72035] | 3.275 | 3.8265 | –
CCOC(=O)c1cnc(SCc2ccccc2)nc1N [Compound 72266] | 2.946 | 3.233 | –
COc1cc(NC(=O)c2cc3ccccc3cc2O)c(OC)cc1Cl [Compound 73118] | 8.006 | 10.008 | –
CCCCCCCCCCCCCCCCCC[N+](C)(C)C.Cc1ccc(S(=O)(=O)[O-])cc1 [Compound 74566] | 1.7 | 3.7 | –

Structure (SMILES) | Activity 5 uM | Activity 10 uM | Activity 2.5 uM
CCCCCCCCCCCCCCCCCC[N+](C)(C)C.O=S(=O)([O-])c1ccccc1 [Compound 74568] | 2.1 | 4.8 | –
C(=P(c1ccccc1)(c1ccccc1)c1ccccc1)[P+](c1ccccc1)(c1ccccc1)c1ccccc1.[Br-] [Compound 74740] | 5.6 | 4.1 | –
Cl.NC(N)=N/N=C/N/N=C/c1ccccc1O [Compound 75971] | 3.111 | 3.3355 | –
CC(=O)[O][Sn]([c]1ccccc1)([c]1ccccc1)[c]1ccccc1 [Compound 76068] | – | 3.68 | 1.02
Oc1ccccc1/C=N/NC(=S)Nc1ccc2cn[nH]c2c1 [Compound 76429] | 4.409 | 5.2405 | –
ClCCN(CCCl)c1ccc(C2=Nc3cccc4cccc(c34)N2)cc1 [Compound 78577] | – | 3.56 | 0.74
CCCCCCCCCCCC[n+]1ccc(C)cc1C.Cc1ccc(S(=O)(=O)[O-])cc1 [Compound 78949] | 4.1 | 7.7 | –
O=Nc1c2cc3ccccc3[nH]c-2c2ccccc12 [Compound 81523] | 7.526 | 8.879 | –
Clc1ccc(/C=N\N2CCCCCC2)cc1 [Compound 82278] | 3.288 | 3.1525 | –
CCCCCCCCCCCCCC[n+]1ccccc1.[Cl-] [Compound 82910] | 7.654 | 12.4425 | –
CCN(CC)c1ccc(/C=C2\C=Cc3ccccc32)cc1 [Compound 83089] | 10.155 | 5.1265 | –
O=[N+]([O-])c1ccc(N=Nc2c(Cl)cc(O)cc2Cl)cc1 [Compound 83318] | 12.03 | 14.6225 | –
CNc1c(F)cc(N=Nc2ccccc2)cc1F [Compound 83335] | – | 3.31 | 2.77
CCCCCCCCCCCC[N+](C)(C)C.[O-]c1c(Cl)c(Cl)c(Cl)c(Cl)c1Cl [Compound 85573] | 2.1 | 3.1 | –
CC(=O)c1cccc(N=NNc2cccc(C(C)=O)c2)c1 [Compound 85646] | 3.127 | 4.18 | –
C1=Cc2ccccc2/C1=C/c1ccc2c(c1)OCO2 [Compound 86430] | 4.871 | 6.063 | –
COc1ccc(NNc2ccc(OC)cc2)cc1 [Compound 86489] | – | 3.17 | 2.73
Cc1ccc(NN(C)c2ccc(C)cc2)cc1 [Compound 86537] | – | 7.51 | 3.85
Cc1ccc(NNc2ccc(C)cc2)cc1 [Compound 86544] | 3.954 | 4.845 | –
O=c1[nH]cnc2nc(-c3ccc(N(CCCl)CCCl)cc3)[nH]c12 [Compound 87086] | 6.572 | 5.461 | –
Br.CCC1=C(C)/C(=C/c2[nH]c(C)c(CC)c2C)N=C1C [Compound 87240] | – | 37.28 | 1.45
CN(C)c1ccc(N=Nc2ccc3ncccc3c2)cc1 [Compound 87323] | 5.277 | 6.0905 | –
OCCc1ccc(-n2cnc3c(Nc4ccc(Cl)cc4)ncnc32)cc1 [Compound 87695] | – | 4.42 | 3.28
O=Cc1cc(CCCCCCc2ccc(O)c(C=O)c2)ccc1O [Compound 88001] | 12 | 21.4655 | –
Cc1cc(N(CCCl)CCCl)ccc1CN1CCCN(Cc2ccc(N(CCCl)CCCl)cc2C)C1c1ccccc1O [Compound 88655] | – | 18.32 | 0.7
CN(CCC(=O)/C(=C\c1ccc(Cl)cc1)c1ccccc1)Cc1ccccc1.Cl [Compound 89160] | – | – | 9.22
